Source: patent US8633134B2, “Substituted amidine compounds for combating animal pests” (priority 2008, dated 2014)

Legend:
Format in all cases: in vivo
[1] = tested on: Diamond Back Moth (Plutella xylostella); test: Diamond back moth leaf dip test; conditions: foliar, 120 h
Protocol: The active compound is dissolved at the desired concentration in a mixture of 1:1 (vol:vol) distilled water:acteon. The test solution is prepared at the day of use and in general at concentrations of […].
Leaves of Chinese cabbage were dipped in test solution and air-dried. Treated leaves were placed in petri dished lined with moist filter paper. Mortality was recorded 24, 72, and 120 hours after treatment.

[2] = tested on: Silverleaf Whitefly (Bemisia argentifolii); test: Silverleaf whitefly cotton plant spray test; conditions: 72 h, 3 days after treatment, in comparison with untreated controls
From the text: (§1) The active compounds were formulated in cyclohexanone as a 10,000 ppm solution supplied in tubes. The tubes were inserted into an automated electrostatic sprayer equipped with an atomizing nozzle and they served as stock solutions for which lower dilutions were made in 50% acetone:50% water (v/v). A nonionic surfactant (Kinetic®) was included in the solution at a volume of 0.01% (v/v).
Cotton plants at the cotyledon stage (one plant per pot) were sprayed by an automated electrostatic plant sprayer equipped with an atomizing spray nozzle. The plants were dried in the sprayer fume hood and then removed from the sprayer. Each pot was placed into a plastic cup and about 10 to 12 whitefly adults (approximately 3-5 days old) were introduced. The insects were collected using an aspirator and a nontoxic Tygon® tubing connected to a barrier pipette tip. The tip, containing the collected insects, was then gently inserted into the soil containing the treated plant, allowing insects to crawl out of the tip to reach the foliage for feeding. Cups were covered with a reusable screened lid. Test plants were maintained in a growth room at about 25° C. and about 20-40% relative humidity for 3 days, avoiding direct exposure to fluorescent light (24 hour photoperiod) to prevent trapping of heat inside the cup. Mortality was assessed 3 days after treatment, compared to untreated control plants.

[3] = tested on: Southern Armyworm (Spodoptera eridania); test: Southern armyworm lima bean foliar spray test; conditions: 96 h
Protocol: as §1
(§2) Lima bean plants (variety Sieva) were grown 2 plants to a pot and selected for treatment at the 1st true leaf stage. Test solutions were sprayed onto the foliage by an automated electrostatic plant sprayer equipped with an atomizing spray nozzle. The plants were dried in the sprayer fume hood and then removed from the sprayer. Each pot was placed into perforated plastic bags with a zip closure. About 10 to 11 armyworm larvae were placed into the bag and the bags zipped closed. Test plants were maintained in a growth room at about 25° C. and about 20-40% relative humidity for 4 days, avoiding direct exposure to fluorescent light (24 hour photoperiod) to prevent trapping of heat inside the bags. Mortality and reduced feeding were assessed 4 days after treatment, compared to untreated control plants.

[4] = tested on: Boll Weevil (Anthonomus grandis); test: Boll weevil microtiter plate diet test; conditions: 120 h
Protocol: For evaluating control of boll weevil (Anthonomus grandis) the test unit consisted of 24-well-microtiter plates containing an insect diet and 20-30 A. grandis eggs.
The compounds were formulated using a solution containing 75% v/v water and 25% v/v DMSO. Different concentrations of formulated compounds were sprayed onto the insect diet at 20 μl, using a custom built micro atomizer, at two replications. After application, microtiter plates were incubated at about 23±1° C. and about 50±5% relative humidity for 5 days. Egg and larval mortality was then visually assessed.

[5] = tested on: Tobacco Budworm (Heliothis virescens); test: Tobacco budworm cotton plant foliar spray test; conditions: 96 h
Protocol: as §1
as §2, with “Cotton” for “Lima bean”, “plants” for “plants (variety Sieva)”, “cotyledon” for “1st true leaf”, “budworm” for “armyworm”

[6] = tested on: Mediterranean Fruitfly (Ceratitis capitata); test: Mediterranean fruitfly microtiter plate diet test; conditions: 120 h
Protocol: For evaluating control of Mediterranean fruitfly (Ceratitis capitata) the test unit consisted of microtiter plates containing an insect diet and 50-80 C. capitata eggs. The compounds were formulated using a solution containing 75% v/v water and 25% v/v DMSO. Different concentrations of formulated compounds were sprayed onto the insect diet at 5 μl, using a custom built micro atomizer, at two replications.
After application, microtiter plates were incubated at about 28±1° C. and about 80±5% relative humidity for 5 days. Egg and larval mortality was then visually assessed.

[7] = tested on: House Fly Adults (Musca domestica); test: House fly adults glass vial contact assay; conditions: 48 h after treatment, in comparison with untreated controls
Protocol: If not otherwise specified, the tests were conducted as glass vial contact assays. Glass vials (20 ml scintillation vials) were used. Treatment solutions were mixed with technical grade chemicals diluted in acetone. Treatment solutions needed for the assays included generally 1 and 10 ppm (0.01 and 0.1 μg/cm^2, respectively), but optionally also 100 and/or 1000 ppm for first tier vials. As commercial standard, alphacypermethrin, was run at 1 ppm. As solvent control, acetone was used for the assay. Treatment solution was pipetted into the bottom of each vial. Each vial was turned on its side and placed onto a commercial grade hot dog roller without applying heat. The uncapped vials were allowed to roll to allow for the acetone treatment to vent off. After drying, the vials were placed into the compartmented vial shipping boxes. The workstation was prepared by chilling the table and plastic Petri dishes with the inside wall coated with Fluon. A weigh boat of 10% sugar water saturated cotton dental pellets was also prepared. The animal pests were collected into a tube with a rechargeable insect vacuum. The tube of animal pests was placed in a laboratory refrigerator until the animal pests were incapacitated. The animal pests were emptied into chilled Petri dish. A small cotton dental pellet was soaked in water or in 10 wt % sugar water, whereas the excess solution was gently squeezed out. […]

[8] = tested on: Orchid Thrips (Dichromothrips corbetti); test: Orchid thrips floral-immersion test; conditions: 96 h
Protocol: Dichromothrips corbetti adults used for bioassay are obtained from a colony maintained continuously under laboratory conditions. For testing purposes, the test compound is diluted to a concentration of 300 ppm (wt compound: vol diluent) in a 1:1 mixture of acetone:water (vol:vol), plus 0.01% vol/vol Kinetic® surfactant.
Thrips potency of each compound is evaluated by using a floral-immersion technique. Plastic petri dishes are used as test arenas. All petals of individual, intact orchid flowers are dipped into treatment solution and allowed to dry. Treated flowers are placed into individual petri dishes along with 10-15 adult thrips. The petri dishes are then covered with lids. All test arenas are held under continuous light and a temperature of about 28° C. for duration of the assay. After 4 days, the numbers of live thrips are counted on each flower, and along inner walls of each petri dish. The level of thrips mortality is extrapolated from pre-treatment thrips numbers.

[9] = tested on: yellowfever mosquito larvae (Aedes aegypti); test: Larval mosquito water treatment assay; conditions: 120 h, 5 DAT (days after treatment), first tier test, in comparison with untreated controls
Protocol: The assay was conducted in 6-well polystyrene plates using one plate per treatment rate. Stock solutions were prepared at 100 and 1000 ppm. Screen rates were at 1 and 10 ppm. Distilled water was added to each well, control wells were treated with acetone. Temephos (Abate technical) was used as the standard at 0.1 ppm. Ten late thirdinstar yellowfever mosquito larvae (Aedes aegypti) in water were added to each well. One drop of liver powder solution (6 g in 100 ml distilled water) was added to each well as a food source daily. Plates were maintained at 22-25° C. and 25-50% RH (relative humidity) and observed daily for dead larvae and pupae at 1, 2, 3, and 5 days after treatment. Dead larvae and all pupae were removed daily. Mortality was defined as an insect incapable of coordinated movement when agitated.

CON=C(c1ccc(C2=NOC(c3cc(Cl)cc(Cl)c3)(C(F)(F)F)C2)cc1C)N(C)C (stereo not drawn) [Compound 1-3, 4-[5-(3,5-Dichloro-phenyl)-5-trifluoromethyl-4,5-dihydro-isoxazol-3-yl]-N′-methoxy-2,N,N-trimethyl-benzamidine]
≥ 75%: mortality at 300 ppm [1] | mortality at 300 ppm [2] | mortality at 300 ppm [3] | mortality at 2500 ppm [4] | mortality at 2500 ppm [5] | mortality at 2500 ppm [6] | mortality at 10 ppm [7] | mortality at 300 ppm [8] | mortality at 1 ppm [9]
